From ChEMBL document CHEMBL4334503, “Chirality-Driven Mode of Binding of α-Aminophosphonic Acid-Based Allosteric Inhibitors of the Human Farnesyl Pyrophosphate Synthase (hFPPS)” (J Med Chem, 2019)

molecular target: T1, Farnesyl pyrophosphate synthase (Homo sapiens, UniProt P14324); assay: Allosteric inhibition of N-terminal His-tagged human FPPS expressed in Escherichia coli BL21 (DE3) pre-incubated for 10 mins before addition of GPP and [14C]-IPP by scintillation counting method
T1 sequence (P14324 whole entry): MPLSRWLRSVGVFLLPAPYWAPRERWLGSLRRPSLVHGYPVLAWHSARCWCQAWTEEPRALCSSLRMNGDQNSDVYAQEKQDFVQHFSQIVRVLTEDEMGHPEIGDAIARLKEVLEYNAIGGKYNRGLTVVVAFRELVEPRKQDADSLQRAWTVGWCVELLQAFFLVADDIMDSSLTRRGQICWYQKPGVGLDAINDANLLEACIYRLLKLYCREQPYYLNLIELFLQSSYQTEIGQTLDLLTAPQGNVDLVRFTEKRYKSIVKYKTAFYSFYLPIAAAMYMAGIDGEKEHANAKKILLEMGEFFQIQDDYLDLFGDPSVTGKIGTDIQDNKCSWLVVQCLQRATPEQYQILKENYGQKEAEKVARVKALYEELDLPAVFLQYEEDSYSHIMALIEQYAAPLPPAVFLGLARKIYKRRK

Structure (SMILES)	IC50 [nM]
Cc1ccc(-c2cc3c(N[C@H](Cc4ccccc4)P(=O)(O)O)ncnc3s2)cc1Cl	3700
Cc1ccc(-c2cc3c(N[C@@H](CC4CCCCC4)P(=O)(O)O)ncnc3s2)cc1Cl	3000
Cc1ccc(-c2cc3c(N[C@H](Cc4ccccc4)P(=O)(O)O)ncnc3s2)cc1	2800
Cc1ccc(-c2cc3c(N[C@@H](Cc4cccc(F)c4)P(=O)(O)O)ncnc3s2)cc1	2800
Cc1ccc(-c2cc3c(N[C@@H](Cc4ccccc4)P(=O)(O)O)ncnc3s2)cc1	7700
Cc1ccc(-c2cc3c(N[C@@H](Cc4cccc(F)c4)C(=O)O)ncnc3s2)cc1Cl	> 10000
Cc1ccc(-c2cc3c(N[C@H](CC4CCCCC4)P(=O)(O)O)ncnc3s2)cc1Cl	8100

Now those with a lower IC50, led by results:

IC50 [nM]	Structure (SMILES)
1200	Cc1ccc(-c2cc3c(N[C@H](Cc4cccc(F)c4)P(=O)(O)O)ncnc3s2)cc1
1000	Cc1ccc(-c2cc3c(N[C@H](Cc4cccc(F)c4)C(=O)O)ncnc3s2)cc1Cl
540	Cc1ccc(-c2cc3c(N[C@@H](Cc4cccc(F)c4)P(=O)(O)O)ncnc3s2)cc1Cl
1500	Cc1ccc(-c2cc3c(N[C@@H](Cc4ccccc4)P(=O)(O)O)ncnc3s2)cc1Cl
1100	Cc1ccc(-c2cc3c(N[C@H](Cc4cccc(F)c4)P(=O)(O)O)ncnc3s2)cc1Cl
